{"source": "paper PMC10303271", "about": "“Synthesis and Receptor Binding Studies of α5 GABAAR Selective Novel Imidazodiazepines Targeted for Psychiatric and Cognitive Disorders” (Molecules, 2023)", "key": {"[1]": {"target": "peripheral benzodiazepine receptors (PBR) (Rattus norvegicus, UniProt P16257)", "sequence (P16257 whole entry)": "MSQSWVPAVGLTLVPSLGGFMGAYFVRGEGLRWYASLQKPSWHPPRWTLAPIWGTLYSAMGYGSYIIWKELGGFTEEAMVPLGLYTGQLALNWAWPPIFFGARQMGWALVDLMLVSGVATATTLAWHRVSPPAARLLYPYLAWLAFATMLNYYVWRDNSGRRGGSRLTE", "assay": "PDSP radioligand binding at PBR", "excerpt": "The compounds were also screened at PDSP to determine any binding with peripheral benzodiazepine receptors (PBR). A number of biological processes are associated with PBR. The most prevalent are transportation of anions for mitochondrial transmembrane potential, biosynthesis of heme, regulation of neurological damage, proliferation, cell death (apoptosis), as well as regulation of steroidogenesis. The test compounds were screened in the primary binding assay to determine the % inhibition at PBR. […] These compounds were then subjected to a secondary screening to determine the Ki (nM) value for PBR receptors.\n(§1) The NIMH PDSP assay protocol book [https://kidbdev.med.unc.edu/databases/PDSP%20Protocols%20II%202013-03-28.pdf accessed on 23 April 2023]. describes the protocols for primary and secondary radio-ligand binding assays. These assays were carried out in a final volume of 125 µL per well in the appropriate binding buffer.\n(§2) The binding of a ligand to a receptor, ion channel, or transporter was determined in the […] of 10 µM of the appropriate reference compound. […] Plates were incubated in the dark for 90 min at rt, and the reactions were stopped by vacuum filtration onto 0.3% polyethyleneimine (PEI) soaked 96-well filter mats using a 96-well Filtermateharvester. This was followed by three washes with cold PBS buffer. Radioactivity was then counted on a Microbeta counter. Nonlinear regression was used to analyze the data with N = 6 replicates."}, "Alpha2A": {"target": "T1, Alpha2A (Homo sapiens, UniProt P08913)", "T1 construct": "purchased NIMH Psychoactive Drug Screening Program (PDSP)", "T1 sequence (P08913 1-465)": "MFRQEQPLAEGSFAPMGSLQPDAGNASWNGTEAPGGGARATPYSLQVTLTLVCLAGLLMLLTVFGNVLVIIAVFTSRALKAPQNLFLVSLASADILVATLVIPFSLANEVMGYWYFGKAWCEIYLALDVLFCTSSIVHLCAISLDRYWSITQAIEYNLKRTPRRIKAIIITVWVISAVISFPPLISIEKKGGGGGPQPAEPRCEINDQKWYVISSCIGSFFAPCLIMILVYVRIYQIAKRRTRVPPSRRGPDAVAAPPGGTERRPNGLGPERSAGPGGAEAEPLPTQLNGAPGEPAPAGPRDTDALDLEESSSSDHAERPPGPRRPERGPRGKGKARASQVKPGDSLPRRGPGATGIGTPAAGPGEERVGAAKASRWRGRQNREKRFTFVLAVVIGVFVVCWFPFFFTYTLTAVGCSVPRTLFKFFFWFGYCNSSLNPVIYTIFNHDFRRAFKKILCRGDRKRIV", "assay": "PDSP primary binding Alpha2A", "details": "1.5 h; primary binding, 10,000 nM; last figure of the line = mean of the 4 before it; read-out: Alpha2A, PDSP raw data, mean", "protocol": "(§3) To determine if any off-target receptor-binding effects are present, all the novel ligands were sent to the National Institute of Mental Health (NIMH), Psychoactive Drug Screening Program (PDSP). The ligands were screened over a panel of 47 receptors, ion channels, and transporters to determine any other possible interactions with […]. The hERG-binding was also determined. […] No binding of the test compounds to calcium channels was observed. […] It is necessary to screen the compounds for hERG-binding during the early process of drug discovery. The unintentional binding of many drugs to hERG can cause blockade of hERG K+ channels in the heart, which can cause many side effects including cardiac arrhythmias and sudden death. […] All of the α5 imidazodiazepines were tested for hERG-binding.\nas §1, §2"}, "Alpha2B": {"target": "T2, Alpha2B (Homo sapiens, UniProt P18089)", "T2 construct": "purchased NIMH Psychoactive Drug Screening Program (PDSP)", "T2 sequence (P18089 1-450)": "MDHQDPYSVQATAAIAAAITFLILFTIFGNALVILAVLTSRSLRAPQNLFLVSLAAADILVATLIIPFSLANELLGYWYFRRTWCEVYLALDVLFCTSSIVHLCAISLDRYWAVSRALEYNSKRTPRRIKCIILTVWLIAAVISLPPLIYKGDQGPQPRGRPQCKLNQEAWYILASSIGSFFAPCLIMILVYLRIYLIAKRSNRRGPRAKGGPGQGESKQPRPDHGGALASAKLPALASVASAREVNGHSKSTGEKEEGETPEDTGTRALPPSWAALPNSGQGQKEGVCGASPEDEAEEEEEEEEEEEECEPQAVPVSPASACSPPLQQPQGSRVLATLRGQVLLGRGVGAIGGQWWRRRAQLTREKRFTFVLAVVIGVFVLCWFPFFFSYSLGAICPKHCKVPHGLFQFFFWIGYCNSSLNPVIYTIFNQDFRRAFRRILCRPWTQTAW", "assay": "PDSP primary binding Alpha2B", "details": "1.5 h; primary binding, 10,000 nM; last figure of the line = mean of the 4 before it; read-out: Alpha2B, PDSP raw data, mean", "protocol": "as §3, §1, §2"}, "Beta2": {"target": "T3, Beta2 (Homo sapiens, UniProt P07550)", "T3 construct": "purchased NIMH Psychoactive Drug Screening Program (PDSP)", "T3 sequence (P07550 whole entry)": "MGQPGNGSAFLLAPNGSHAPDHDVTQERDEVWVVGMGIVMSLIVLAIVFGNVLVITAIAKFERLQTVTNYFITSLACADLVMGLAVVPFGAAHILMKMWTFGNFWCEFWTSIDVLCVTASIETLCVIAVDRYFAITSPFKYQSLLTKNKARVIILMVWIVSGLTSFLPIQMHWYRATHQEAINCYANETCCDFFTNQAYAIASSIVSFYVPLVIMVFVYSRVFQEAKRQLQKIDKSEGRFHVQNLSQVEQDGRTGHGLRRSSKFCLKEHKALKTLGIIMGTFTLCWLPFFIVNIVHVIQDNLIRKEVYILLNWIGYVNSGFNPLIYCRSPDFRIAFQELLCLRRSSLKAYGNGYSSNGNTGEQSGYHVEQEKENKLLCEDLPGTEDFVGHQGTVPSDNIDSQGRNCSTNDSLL", "assay": "PDSP primary binding Beta2", "details": "1.5 h; primary binding, 10,000 nM; last figure of the line = mean of the 4 before it; read-out: Beta2, PDSP raw data, mean", "protocol": "as §3, §1, §2"}, "D5": {"target": "T4, D5 (Homo sapiens, UniProt P21918)", "T4 construct": "purchased NIMH Psychoactive Drug Screening Program (PDSP)", "T4 sequence (P21918 whole entry)": "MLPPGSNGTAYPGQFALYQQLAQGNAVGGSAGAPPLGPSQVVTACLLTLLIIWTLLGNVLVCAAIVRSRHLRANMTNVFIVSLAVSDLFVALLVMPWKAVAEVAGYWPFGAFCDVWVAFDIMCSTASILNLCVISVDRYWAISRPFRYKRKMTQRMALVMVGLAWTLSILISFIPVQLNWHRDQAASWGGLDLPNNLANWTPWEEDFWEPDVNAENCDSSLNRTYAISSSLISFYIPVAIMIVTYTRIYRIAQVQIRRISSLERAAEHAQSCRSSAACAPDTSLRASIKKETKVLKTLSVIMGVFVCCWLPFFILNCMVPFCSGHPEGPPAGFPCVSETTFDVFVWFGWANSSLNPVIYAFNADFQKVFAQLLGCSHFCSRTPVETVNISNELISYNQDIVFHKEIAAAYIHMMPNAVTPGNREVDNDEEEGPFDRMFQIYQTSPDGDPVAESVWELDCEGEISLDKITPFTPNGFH", "assay": "PDSP primary binding D5", "details": "1.5 h; primary binding, 10,000 nM; last figure of the line = mean of the 4 before it; read-out: D5, PDSP raw data, mean", "protocol": "as §3, §1, §2"}, "H3": {"target": "T5, H3 (Homo sapiens, UniProt Q9Y5N1)", "T5 construct": "purchased NIMH Psychoactive Drug Screening Program (PDSP)", "T5 sequence (Q9Y5N1 whole entry)": "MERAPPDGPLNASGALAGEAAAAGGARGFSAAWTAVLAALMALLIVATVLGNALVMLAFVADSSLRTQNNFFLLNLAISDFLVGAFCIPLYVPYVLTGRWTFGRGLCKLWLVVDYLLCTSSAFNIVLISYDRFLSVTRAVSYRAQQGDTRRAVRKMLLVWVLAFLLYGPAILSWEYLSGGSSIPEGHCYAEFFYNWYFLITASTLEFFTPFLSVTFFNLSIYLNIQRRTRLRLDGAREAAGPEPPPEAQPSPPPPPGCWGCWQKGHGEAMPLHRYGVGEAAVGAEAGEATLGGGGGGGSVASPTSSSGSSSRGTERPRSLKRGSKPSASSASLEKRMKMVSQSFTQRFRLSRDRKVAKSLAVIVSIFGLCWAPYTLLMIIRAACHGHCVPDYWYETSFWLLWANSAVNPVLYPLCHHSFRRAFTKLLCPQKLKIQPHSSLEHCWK", "assay": "PDSP primary binding H3", "details": "primary binding, 10,000 nM; last figure of the line = mean of the 4 before it; read-out: H3, PDSP raw data, mean", "protocol": "as §3, §1, §2"}, "M3": {"target": "T6, M3 (Homo sapiens, UniProt P20309)", "T6 construct": "purchased NIMH Psychoactive Drug Screening Program (PDSP)", "T6 sequence (P20309 whole entry)": "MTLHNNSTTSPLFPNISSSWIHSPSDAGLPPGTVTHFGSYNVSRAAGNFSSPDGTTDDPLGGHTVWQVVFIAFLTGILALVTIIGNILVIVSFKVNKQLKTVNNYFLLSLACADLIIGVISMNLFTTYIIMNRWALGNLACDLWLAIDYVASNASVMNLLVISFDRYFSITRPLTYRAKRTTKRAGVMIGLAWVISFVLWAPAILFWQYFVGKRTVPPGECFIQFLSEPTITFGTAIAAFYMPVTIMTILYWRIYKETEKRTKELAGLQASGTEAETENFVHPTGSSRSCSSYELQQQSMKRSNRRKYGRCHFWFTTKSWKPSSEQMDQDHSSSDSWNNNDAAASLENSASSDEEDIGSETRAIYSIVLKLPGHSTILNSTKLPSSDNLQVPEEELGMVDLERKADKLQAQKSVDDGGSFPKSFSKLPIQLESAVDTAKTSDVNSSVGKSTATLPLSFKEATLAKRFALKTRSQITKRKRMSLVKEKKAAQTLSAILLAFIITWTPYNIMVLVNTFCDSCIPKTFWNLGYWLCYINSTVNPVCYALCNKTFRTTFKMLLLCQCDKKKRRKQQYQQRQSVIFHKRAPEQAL", "assay": "PDSP primary binding M3", "details": "primary binding, 10,000 nM; last figure of the line = mean of the 4 before it; read-out: M3, PDSP raw data, mean", "protocol": "as §3, §1, §2"}, "Sigma 1": {"system": "Sigma 1", "assay": "PDSP primary binding Sigma 1", "details": "primary binding, 10,000 nM; last figure of the line = mean of the 4 before it", "protocol": "as §3, §1, §2"}, "V1A": {"target": "T7, V1A (Homo sapiens, UniProt P37288)", "T7 construct": "purchased NIMH Psychoactive Drug Screening Program (PDSP)", "T7 sequence (P37288 whole entry)": "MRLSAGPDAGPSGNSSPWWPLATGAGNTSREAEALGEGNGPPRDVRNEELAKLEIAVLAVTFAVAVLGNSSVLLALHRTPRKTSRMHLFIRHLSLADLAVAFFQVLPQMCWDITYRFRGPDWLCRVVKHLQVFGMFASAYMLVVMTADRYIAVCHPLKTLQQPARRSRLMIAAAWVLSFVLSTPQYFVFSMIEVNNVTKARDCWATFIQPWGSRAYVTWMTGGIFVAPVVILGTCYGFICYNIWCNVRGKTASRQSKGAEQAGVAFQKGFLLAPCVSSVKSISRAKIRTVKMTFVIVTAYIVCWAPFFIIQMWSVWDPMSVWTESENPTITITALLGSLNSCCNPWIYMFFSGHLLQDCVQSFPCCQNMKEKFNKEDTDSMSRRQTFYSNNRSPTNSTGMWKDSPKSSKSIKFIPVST", "assay": "PDSP primary binding V1A", "details": "primary binding, 10,000 nM; last figure of the line = mean of the 4 before it; read-out: V1A, PDSP raw data, mean", "protocol": "as §3, §1, §2"}, "[2]": {"details": "1.5 h, primary binding, 10,000 nM, last figure of the line = mean of the 4 before it, some tables list PBR twice, read-out: PBR, PDSP raw data, mean"}}, "note": "Where two headings read alike, the source gives them in different places.", "data": [{"smiles": "C#Cc1ccc2c(c1)C(c1ccccc1Cl)=N[C@H](C)c1c(C(=O)N(C)CC)ncn1-2", "note": "[Compound 29]", "values": [{"measurement": "inhibition at 10 µM", "setting": "[1]; [2]", "value": -10.9, "unit": "%"}, {"measurement": "inhibition at 10 µM", "setting": "Alpha2A", "value": 7.96, "unit": "%"}, {"measurement": "inhibition at 10 µM", "setting": "Alpha2B", "value": 7.23, "unit": "%"}, {"measurement": "inhibition at 10 µM", "setting": "Beta2", "value": -7.07, "unit": "%"}, {"measurement": "inhibition at 10 µM", "setting": "D5", "value": -17.2, "unit": "%"}, {"measurement": "inhibition at 10 µM", "setting": "H3", "value": -29.5, "unit": "%"}, {"measurement": "inhibition at 10 µM", "setting": "M3", "value": -8.9, "unit": "%"}, {"measurement": "Sigma 1, PDSP raw data, mean", "setting": "Sigma 1", "value": 35.65, "unit": "%"}, {"measurement": "inhibition at 10 µM", "setting": "V1A", "value": 8.93, "unit": "%"}]}, {"smiles": "CCc1noc(-c2ncn3c2[C@@H](C)N=C(c2ccccc2F)c2cc(Cl)ccc2-3)n1", "note": "[Compound 36, (R)-5-(8-Chloro-6-(2′-fluorophenyl)-4-methyl-4H-benzo[f]imidazo[1,5-a][1,4]diazepin-3-yl)-3-ethyl-1,2,4-oxadiazole]", "values": [{"measurement": "Ki", "setting": "[1]", "value": "982 ± 405", "unit": "nM"}, {"measurement": "inhibition at 10 µM", "setting": "[1]; [2]", "value": 57.2, "unit": "%"}, {"measurement": "inhibition at 10 µM", "setting": "[1]; at 10,000 nM, N = 5, read-out: Binding Affinity at PBR % Inhibition (Primary)", "value": "57.2 ± 10.3", "unit": "%"}, {"measurement": "inhibition at 10 µM", "setting": "Alpha2A", "value": -14.4, "unit": "%"}, {"measurement": "inhibition at 10 µM", "setting": "Alpha2B", "value": 16.6, "unit": "%"}, {"measurement": "inhibition at 10 µM", "setting": "Beta2", "value": 2.67, "unit": "%"}, {"measurement": "inhibition at 10 µM", "setting": "D5", "value": 3.16, "unit": "%"}, {"measurement": "inhibition at 10 µM", "setting": "H3", "value": -0.81, "unit": "%"}, {"measurement": "inhibition at 10 µM", "setting": "M3", "value": -3.98, "unit": "%"}, {"measurement": "Sigma 1, PDSP raw data, mean", "setting": "Sigma 1", "value": 46, "unit": "%"}, {"measurement": "inhibition at 10 µM", "setting": "V1A", "value": 27.6, "unit": "%"}]}]}
